Experimental data from patent publication US5665736A, “N-benzoylmethyl-piperidines” (priority 1995, dated 1997).
Counter-ions that a name gives are not always drawn.

System: mice
Experiment: Irwin test in mice, oral administration
Format: in vivo
Excerpt: These findings are most important, since the safety range of the compounds of this invention makes them be highly useful for their clinical application.

Fc1ccc([C@@H]2CCNC[C@H]2COc2ccc3c(c2)OCO3)cc1 [Paroxetine, (-)-trans-4-(p-fluorophenyl)-3-[[3,4-(methylenedioxy)phenoxy]methyl]-piperidine, reference compound]
signs of toxicity, Irwin test (400 mg/kg): convulsions, mydriasis and Straub tail

O=C(CN1CC[C@@H](c2ccc(F)cc2)[C@H](COc2ccc3c(c2)OCO3)C1)c1ccc(Cl)cc1 [Example 2, (-)-Trans-N-p-chlorobenzoylmethyl-4-(p-fluorophenyl)-3-[[3,4-(methylenedioxy)phenoxy]methyl]-piperidine hydrochloride]
signs of toxicity, Irwin test (800 mg/kg): merely the onset of manifestations of hyperactivity was observed

O=C(CN1CC[C@@H](c2ccc(F)cc2)[C@H](COc2ccc3c(c2)OCO3)C1)c1ccc(F)cc1 [Example 1, (-)-Trans-N-p-fluorobenzoylmethyl-4-(p-fluorophenyl)-3-[[3,4-(methylenedioxy)phenoxy]methyl]-piperidine hydrochloride]
signs of toxicity, Irwin test (600 mg/kg): did not show any sign of toxicity
